System: primary cortical neurons
Experiment: SDS-PAGE and immunoblotting of marker proteins in membrane and cytosolic fractions
Assay type: cell-based, mouse
Settings: Aβ 500 nM, 4 h, normalized to Actin/GAPDH, fold change wrt control cells, mean ± S.E.M., n = 6, N = 3; for CTSD mature* level / CTSD pro* level / EEA1* level / RAB5* level / RAB7* level / RAB11* level / SQSTM1/p62* level / UBQ* level: cytosolic fraction; for ATG3 level / ATG5 level / ATG12–ATG5 level / ATG14 level / LAMP2 level / LC3-I level / LC3-II level / ULK1/Atg1 level: membrane fraction
Description: [Worded in the source for another cell line; used here, by the source, with some conditions changed.] SH-SY5Y cells seeded on D1, were treated with Aβ variants (1 μM) on D3 in DMEM/F-12 media without serum and antibiotics. Control treatment included treatment with equal volume of 10 mM NaOH solution used for preparing the Aβ stock solutions, in respective cell culture medium. SH-SY5Y cells, after 16 h of transient expression of the reporter constructs, were treated with different Aβ variants, autophagy modulator substrates and respective controls in DMEM/F-12, FCS^− PS^− media for the mentioned time points. After treatment, cells were washed twice with PBS and with 0.025% trypsin-EDTA in PBS to get rid of cell bound Aβ, followed by subsequent washings with PBS again. Cells were either collected by scraping using a cell-scraper or fixed with 4% PFA-PBS for 15 min at RT, for further immunocytochemistry experiments. Collected treatment media was centrifuged at 1000 g for 5 min, pellet discarded and supernatant frozen at −20°C until further usage.
Cells were collected by scraping and mechanically homogenized in hypotonic D buffer (10 mM Tris-HCl, pH 7.4, 10 mM NaCl, 0.1 mM EGTA, 25 mM glycerol 2-phosphate, 1 mM DTT) containing protease and phosphatase inhibitors by repeated suspension through a 23 G × 1” needle. Post-nuclear supernatant (PNS) was collected by centrifugation of the mechanically homogenized cellular material at 2,000 g for 5 min. The pellet was the nuclear material. Nuclear pellet was then resuspended in Buffer C (5 mM HEPES, 1.5 mM MgCl2, 0.2 mM EDTA, 0.5 mM DTT, 0.05% NP40 [Sigma Aldrich, 18876], 30% glycerol, pH 7.9) containing protease and phosphatase inhibitors, ultrasonicated at minimum voltage, three currents in four cycles, followed by repetitive cooling of samples on ice. The nuclear fraction was the supernatant collected after centrifugation at 16,100 g for 15 min. The PNS collected from the first step was centrifuged at 16,100 g for 60 min, and supernatant was used as the crude cytosolic fraction. The pellet contained the membrane materials, which were re-homogenized in hypotonic D buffer and again centrifuged at 16,100 g for 60 min. The supernatant was discarded, pellet was resuspended in STEN-lysis buffer (20 mM Tris-HCl, pH 7.5, 150 mM NaCl, 1 mM EDTA, 1 mM EGTA, 1% Triton X-100, 2.5 mM sodium pyrophosphate [Sigma Aldrich, P1835], 1 mM β-glycerophosphate [Sigma Aldrich, G9422]) containing protease and phosphatase inhibitors, and the membrane fraction was the supernatant collected after centrifugation at 16,100 g for 15 min. The crude cytosolic fraction was then further fractionated at 100,000 g for 70 min at 4°C under vacuum. The resultant supernatant was the soluble cytosolic fraction. The pellet was resuspended in STEN lysis buffer and centrifuged at 16,100 g for 15 min. The resultant supernanant represented the insoluble cytosolic fraction.
For different cellular fractions prepared as described earlier, the protein content was estimated using the standard Pierce™ BCA protein assay kit (ThermoFisher Scientific, 23225). For direct comparison between the samples, equal amount of protein was loaded. Samples were dissolved in Laemmli buffer and were boiled at 95°C for 5 min. They were loaded on a precast 4–12% NuPage® Bis-Tris gels (Life technologies, NP033–5/6, WG140–2/3). Gels and prestained protein molecular weight markers were purchased from Life technologies. The separated proteins were electro-transferred onto a 0.2-μm nitrocellulose (NT) membrane (Amersham, 1060001) for 1 h 45 min. After blotting, the NT membranes were boiled in PBS for 10 min. Ponceau staining was done to monitor protein loading of samples. The blots were then incubated in 5% skim milk in TBS-T (TBS [50 mM Tris-HCl, pH 7.5, 150 mM NaCl] containing 0.1% Tween 20 [Sigma Aldrich, P1379]) for 1 h at RT. Blots were incubated overnight at 4°C in the primary antibody solution (respective dilutions in TBS-T, Table 1). Blots were washed and incubated with appropriate secondary antibodies conjugated either with HRP or fluorescent dyes for 1 h. […]

## amyloid-β phosphorylated at serine residue 26 [p-Ser26Aβ]
  CTSD mature* level: 1.46 ± 0.11 fold change
  CTSD pro* level: 1.19 ± 0.05 fold change
  EEA1* level: 1.28 ± 0.12 fold change
  RAB5* level: 1.47 ± 0.11 fold change
  RAB7* level: 1.25 ± 0.12 fold change
  RAB11* level: 1.89 ± 0.06 fold change
  SQSTM1/p62* level: 1.41 ± 0.08 fold change
  UBQ* level: 2.11 ± 0.4 fold change
  ATG3 level: 1.38 ± 0.32 fold change
  ATG5 level: 1.31 ± 0.11 fold change
  ATG12–ATG5 level: 1.43 ± 0.23 fold change
  ATG14 level: 1.58 ± 0.17 fold change
  LAMP2 level: 1.23 ± 0.07 fold change
  LC3-I level: 1.45 ± 0.12 fold change
  LC3-II level: 1.42 ± 0.2 fold change
  ULK1/Atg1 level: 1.74 ± 0.36 fold change

## non-phosphorylated amyloid-β [npAβ, reference compound]
  CTSD mature* level: 1.08 ± 0.07 fold change
  CTSD pro* level: 0.99 ± 0.06 fold change
  EEA1* level: 1.22 ± 0.15 fold change
  RAB5* level: 1.08 ± 0.07 fold change
  RAB7* level: 1.1 ± 0.08 fold change
  RAB11* level: 1.47 ± 0.22 fold change
  SQSTM1/p62* level: 1.19 ± 0.02 fold change
  UBQ* level: 1.36 ± 0.19 fold change
  ATG3 level: 1.23 ± 0.21 fold change
  ATG5 level: 1.08 ± 0.11 fold change
  ATG12–ATG5 level: 1.04 ± 0.09 fold change
  ATG14 level: 1.27 ± 0.08 fold change
  LAMP2 level: 1.16 ± 0.08 fold change
  LC3-I level: 1.37 ± 0.06 fold change
  LC3-II level: 1.48 ± 0.06 fold change
  ULK1/Atg1 level: 1.37 ± 0.35 fold change

## amyloid-β phosphorylated at serine residue 8 [p-Ser8Aβ]
  CTSD mature* level: 0.94 ± 0.09 fold change
  CTSD pro* level: 0.99 ± 0.04 fold change
  EEA1* level: 1.65 ± 0.21 fold change
  RAB5* level: 1.26 ± 0.09 fold change
  RAB7* level: 0.95 ± 0.17 fold change
  RAB11* level: 1.75 ± 0.29 fold change
  SQSTM1/p62* level: 1.49 ± 0.06 fold change
  UBQ* level: 1.62 ± 0.14 fold change
  ATG3 level: 1.23 ± 0.38 fold change
  ATG5 level: 1.18 ± 0.1 fold change
  ATG12–ATG5 level: 1.18 ± 0.2 fold change
  ATG14 level: 1.17 ± 0.05 fold change
  LAMP2 level: 0.97 ± 0.06 fold change
  LC3-I level: 1.43 ± 0.15 fold change
  LC3-II level: 1.95 ± 0.14 fold change
  ULK1/Atg1 level: 0.88 ± 0.22 fold change

Reference: article PMC10761119, “Phosphorylation-state dependent intraneuronal sorting of Aβ differentially impairs autophagy and the endo-lysosomal system” (Autophagy, 2023)
